Like-named read-outs stand apart in the source and are kept apart here.
Experiments:
Podosphaera leucotricha = assay: Podosphaera test (apple) / protective; format: in vivo; conditions: 240 h, read-out: efficacy
Method: (§1) To produce a suitable preparation of active compound, 1 part by weight of active compound is mixed with the stated amounts of solvent and emulsifier, and the concentrate is diluted with water to the desired concentration.
(§2) To test for protective activity, young plants are sprayed with the active compound preparation at the stated application rate. After the spray coating has dried on, the plants are inoculated with an aqueous spore suspension of the apple mildew pathogen Podosphaera leucotricha. The plants are then placed in a greenhouse at about 23° C. and a relative atmospheric humidity of about 70%.
(§3) Evaluation is carried out 10 days after the inoculation. 0% means an efficacy which corresponds to that of the control, whereas an efficacy of 100% means that no infection is observed.

Sphaerotheca fuliginea = assay: Sphaerotheca test (cucumber) / protective; format: in vivo; conditions: Podosphaera fuliginea, 168 h, read-out: efficacy
Method: as §1
as §2, with “dried,” for “dried on,”, “Sphaerotheca fuliginea.” for “the apple mildew pathogen Podosphaera leucotricha.”
Evaluation is carried out 7 days after the inoculation. 0% means an efficacy which corresponds to that of the control, whereas an efficacy of 100% means that no infection is observed.

Botrytis cinerea = assay: Botrytis test (bean) / protective; format: in vivo; conditions: 48 h, read-out: efficacy
Method: as §1
To test for protective activity, young plants are sprayed with the active compound preparation at the stated application rate. After the spray coating has dried on, 2 small pieces of agar overgrown with Botrytis cinerea are placed on each leaf. The inoculated plants are then placed in a darkened chamber at about 20° C. and 100% relative atmospheric humidity.
Two days after the inoculation the size of the infected spots on the leaves is evaluated. 0% means an efficacy which corresponds to that of the control, whereas an efficacy of 100% means that no infection is observed.

Uromyces appendiculatus = assay: Uromyces test (bean) / protective; format: in vivo; conditions: 240 h, read-out: efficacy
Method: as §1
To test for protective activity, young plants are sprayed with the active compound preparation at the stated application rate. After the spray coating has dried on, the plants are inoculated with an aqueous spore suspension of the bean rust pathogen Uromyces appendiculatus and then remain in an incubation cabin at about 20° C. and 100% relative atmospheric humidity for 1 day.
The plants are then placed in a greenhouse at about 21° C. and a relative atmospheric humidity of about 90%.
as §3

Puccinia recondita = assay: Puccinia test (wheat) / protective; format: in vivo; conditions: 240 h, read-out: efficacy
Method: as §1
To test for protective activity, young plants are sprayed with the active compound preparation at the stated application rate. After the spray coating has dried on, the plants are sprayed with a conidia suspension of Puccinia recondita. The plants remain in an incubation cabin at 20° C. and 100% relative atmospheric humidity for 48 hours.
The plants are then placed in a greenhouse at a temperature of about 20° C. and a relative atmospheric humidity of 80% to promote the development of rust pustules.
as §3

[1] = apple plants, protective spray, active compound concentration 100 ppm, evaluation 10 days after inoculation
[2] = cucumber plants, protective spray, active compound concentration 100 ppm, evaluation 7 days after inoculation
[3] = bean plants, protective spray, active compound concentration 250 ppm, evaluation two days after inoculation
[4] = bean plants, protective spray, active compound concentration 10 ppm, evaluation 10 days after inoculation
[5] = wheat plants, protective spray, active compound concentration 1000 ppm, evaluation 10 days after inoculation

Compound	logP (logP (acidic, pH 2.3); pH 2.3, log P (pH 2.3), pH 2.3)	logP (logP (acidic, pH 2.3); pH 2.3, logP acidic, acidic)	log P (pH 2.3)	pest or weed control at 100 ppm (Podosphaera leucotricha; [1]) [%]	pest or weed control at 100 ppm (Sphaerotheca fuliginea; [2]) [%]	pest or weed control at 250 ppm (Botrytis cinerea; [3]) [%]	pest or weed control at 10 ppm (Uromyces appendiculatus; [4]) [%]	pest or weed control at 1000 ppm (Puccinia recondita; [5]) [%]	pest or weed control at 100 ppm (Podosphaera leucotricha) [%]	pest or weed control at 100 ppm (Sphaerotheca fuliginea) [%]	pest or weed control at 250 ppm (Botrytis cinerea) [%]	pest or weed control at 10 ppm (Uromyces appendiculatus) [%]	pest or weed control at 1000 ppm (Puccinia recondita) [%]	logP (logP (acidic, pH 2.3); pH 2.3)
CCN(C)C=Nc1cc(C)c(Oc2ccc(-c3ccc(OC)cc3)cc2)cc1C [Compound 5, N-ethyl-N′-{4-[(4′-methoxybiphenyl-4-yl)oxy]-2,5-dimethylphenyl}-N-methylimidoformamide]	2.57	2.47		≥ 70	≥ 70	≥ 70	≥ 70	≥ 70						
4-(4-Cyclohexylphenoxy)-2,5-dimethylnitrobenzene			6.69											
4-(4-Bromophenoxy)-2,5-dimethylnitrobenzene			4.86											
CCN(C)C=Nc1cc(C)c(Oc2ccc(-c3ccc(Cl)cc3)cc2)cc1C [Compound 1, N′-{4-[(4′-chlorobiphenyl-4-yl)oxy]-2,5-dimethylphenyl}-N-ethyl-N-methylimidoformamide]		2.95		≥ 70	≥ 70	≥ 70	≥ 70	≥ 70						
CCN(C)C=Nc1cc(C)c(Oc2ccc(-c3ccc(F)cc3)cc2)cc1C [Compound 11]									≥ 70	≥ 70	≥ 70	≥ 70	≥ 70	2.69
CCN(C)C=Nc1cc(C)c(Oc2ccc(-c3ccccc3C)cc2)cc1C [Compound 16]									≥ 70	≥ 70	≥ 70	≥ 70	≥ 70	2.75
CCc1ccccc1-c1ccc(Oc2cc(C)c(N=CN(C)CC)cc2C)cc1 [Compound 13]									≥ 70	≥ 70	≥ 70	≥ 70	≥ 70	2.89

More lines, main results first:

logP (logP (acidic, pH 2.3); pH 2.3, log P (pH 2.3), pH 2.3)	logP (logP (acidic, pH 2.3); pH 2.3, logP acidic, acidic)	log P (pH 2.3)	Compound	pest or weed control at 100 ppm (Podosphaera leucotricha; [1]) [%]	pest or weed control at 100 ppm (Sphaerotheca fuliginea; [2]) [%]	pest or weed control at 250 ppm (Botrytis cinerea; [3]) [%]	pest or weed control at 10 ppm (Uromyces appendiculatus; [4]) [%]	pest or weed control at 1000 ppm (Puccinia recondita; [5]) [%]	pest or weed control at 100 ppm (Podosphaera leucotricha) [%]	pest or weed control at 100 ppm (Sphaerotheca fuliginea) [%]	pest or weed control at 250 ppm (Botrytis cinerea) [%]	pest or weed control at 10 ppm (Uromyces appendiculatus) [%]	pest or weed control at 1000 ppm (Puccinia recondita) [%]	logP (logP (acidic, pH 2.3); pH 2.3)
	2.87		CCN(C)C=Nc1cc(C)c(Oc2ccc(C3CCCC3)cc2)cc1C [Compound 32, N′-[4-(4-cyclopentylphenoxy)-2,5-dimethylphenyl]-N-ethyl-N-methylimidoformamide]	≥ 70	≥ 70	≥ 70	≥ 70	≥ 70						
	2.67		CCN(C)C=Nc1cc(C)c(Oc2ccc(-c3ccccc3Cl)cc2)cc1C [Compound 27, N′-{4-[(2′-chlorobiphenyl-4-yl)oxy]-2,5-dimethylphenyl}-N-ethyl-N-methylimidoformamide]	≥ 70	≥ 70	≥ 70	≥ 70	≥ 70						
	3		Cc1cc(Oc2ccc(C3CCCC3)cc2)c(C)cc1N=CN(C)C(C)C [Compound 33, N′-[4-(4-cyclopentylphenoxy)-2,5-dimethylphenyl]-N-isopropyl-N-methylimidoformamide]	≥ 70	≥ 70	≥ 70	≥ 70	≥ 70						
	2.67		CCN(C)C=Nc1cc(C)c(Oc2ccc(-c3ccc(SC)cc3)cc2)cc1C [Compound 6, N′-(2,5-dimethyl-4-{[4′-(methylthio)biphenyl-4-yl]oxy}phenyl)-N-ethyl-N-methylimidoformamide]	≥ 70	≥ 70	≥ 70	≥ 70	≥ 70						
	3.46		Cc1cc(Oc2ccc(C3CCCCC3)cc2)c(C)cc1/N=C/N1CCCCC1 [Compound 41, 4-(4-cyclohexylphenoxy)-2,5-dimethyl-N-[(1E)-piperidin-1-ylmethylene]aniline]	≥ 70	≥ 70	≥ 70	≥ 70	≥ 70						
